# Experimental data published in patent US20140371244A1, “METHOD FOR TREATING PROSTATE CANCER BY USE OF PHARMACEUTICAL COMPOSITION CONTAINING A3 ADENOSINE RECEPTOR AGONIST” (priority 2009, published 2014).
# Legend:
# LNCaP cells = experiment: Western blot of cell cycle regulation-related proteins and Wnt signaling in LNCaP cells; type: cell-based, human
# Procedure: (§1) A test was carried out to examine whether the inhibitory effects of thio-Cl-IB-MECA on the proliferation of LNCaP cells and PC-3 cells are attributable to regulation of the Wnt signaling pathway.
# (§2) Specifically, each type of LNCaP cells and PC-3 cells was diluted with 10% FBS-containing medium to a density of 1.0×10^6 cells per 100 mm culture dish and cultured under the conditions of 37° C. and 5% CO2 for 24 hours, followed by washing twice with PBS. Thio-Cl-IB-MECA was diluted in 10% FBS-containing medium at required concentration, and then 10 ml of the culture medium prepared in the 100 mm culture dish was added thereto and cultured for a given period. The non-adherent cells and adherent cells in the cell medium were collected and washed twice with PBS, after which the cells were suspended in boiling cell lysis buffer and heated at 100° C. for 5 minutes. The cells were cooled and then stored at […], and the stored cells were thawed at 37° C. immediately before use in protein quantification and electrophoresis. Protein quantification was performed using the BCA method, and […] of protein was electrophoresed on 8-12% SDS-polyacrylamide gel at 150 V for 110 minutes. The gel at the desired site was cut and transferred to a PVDF (polyvinylidene fluoride) for 1 hour, and after which it was washed twice with PBST and stirred in blocking buffer at room temperature for 1 hour. Then, the membrane was washed three times with PBST for 5 minutes each time, after which primary antibody was diluted at a ratio of 1:1,000-1:2,000 with 3% skimmed milk/PBST, and it was sealed together with the membrane and incubated with stirring at 4° C. for 12 hours or more. The membrane was washed 2-3 times with PBST for 5 minutes each time, after which HRP-conjugated secondary antibody was diluted at a ratio of 1:1,500-1:2,000 and incubated with the membrane at room temperature for 2-3 hours. The membrane was washed three times with PBST for 5 minutes each time and treated with a Western blot substrate (WESTSAVE Up™), and the produced luminescence was examined using LAS-3000.
# [1] = test system: human colorectal cancer HCT 116 cells; experiment: Cell cycle analysis (FACS) in HCT 116 cells; type: cell-based; settings: 40 μM, 24 and 36 hours
# Procedure: Cells were treated with 40 μM of thio-Cl-IB-MECA and cultured for 24 and 36 hours, and the cell cycle of the cells was analyzed by flow cytometer analysis (FACS). Specifically, cells were diluted with 10% FBS-containing medium to a density of 1.0×10^6 cells per 100 mm culture dish and cultured under the conditions of 37° C. and 5% CO2 for 24 hours, followed by washing twice with PBS. Thio-Cl-IB-MECA was diluted in 10% FBS-containing medium to a concentration of 40 μM, and then 10 ml of the culture medium prepared in the 100 mm culture dish was added thereto and cultured for a given time. The non-adherent cells and adherent cells in the cell medium were collected and washed twice with PBS, after which 500 μL of 100% cold methanol was added thereto and the cells were fixed at 4° C. The cells were washed twice with PBS and allowed to stand in RNase A-containing solution for 30 minutes, after which the cells were stained with propidium iodide (PI) buffer for 5 minutes. After removal of the PI buffer, the cells were transferred into a polystyrene round-bottom tube, and the cycle of the cells was analyzed by FACScalibur® flow cytometry.
# HCT 116 cells = experiment: Western blot of cell cycle regulation-related proteins and Wnt signaling in HCT 116 cells; type: cell-based, human; settings: 40 μM
# Procedure: Because it was confirmed that thio-Cl-IB-MECA arrests the G1 phase of human colorectal cancer HCT 116 cells, a test was carried out to examine whether cell cycle regulation-related proteins involved in the G1 phase are expressed and to examine the expression of Wnt-related proteins in order to examine whether the inhibitory effect of thio-Cl-IB-MECA on the proliferation of cancer cells is attributable to regulation of the signaling pathway.
# as §2, with “HCT 116” for “each type of LNCaP”, “were” for “and PC-3 cells was”, “1×10^6” for “1.0×10^6”, “to a concentration of 40 μM,” for “at required concentration,”
# TNF-α = TNF-α secretion (ELISA) and mRNA expression (RT-PCR) in LPS-stimulated RAW 264.7 cells; type: cell-based, mouse
# Procedure: TNF-α is a cytokine whose expression increases in cells stimulated by LPS, and it influences the expression of IL-1β and the progression of inflammatory reactions. Thus, the effect of the inventive composition on the expression of TNF-α was examined. Specifically, RAW 264.7 cells were pretreated with each of 20, 10 and 5 μM of the inventive composition (thio-Cl-IB-MECA) and treated with LPS (1 μg/ml) to induce inflammatory reactions. Then, the cells were incubated for 6 hours, after which the supernatant was taken and the amount of TNF-α secreted into the supernatant was measured using an ELISA ([…]) kit.
# In addition, in order to examine whether TNF-α is expressed at the gene level, the effect of the inventive composition on the expression of TNF-α mRNA was also tested using the RT-PCR method.
# RAW 264.7 cells = experiment: MTT assay, cytotoxicity in RAW 264.7 cells; type: cell-based, mouse; settings: 20 μM (highest concentration)
# Procedure: In order to example whether the iNOS production inhibitory effect is attributable to the toxicity of the sample itself (inventive composition, thio-Cl-IB-MECA), an MTT (3-(4,5-dimethylthiazol-2-yl)-2,5-diphenyltetrazolium bromide) assay was performed.
# PC-3 cells = experiment: Western blot of cell cycle regulation-related proteins and Wnt signaling in PC-3 cells; type: cell-based, human
# Procedure: as §1, §2
smiles,measurement,setting,value
"CNC(=O)[C@H]1S[C@@H](n2cnc3c(NCc4cccc(I)c4)nc(Cl)nc32)[C@H](O)[C@@H]1O [thio-Cl-IB-MECA, 2-chloro-N^6-(3-iodobenzyl)-4′-thioadenosine-5′-N-methyluronamide]","Wnt signaling pathway, LNCaP",LNCaP cells,inhibited the Wnt signaling pathway
same,"expression and RB phosphorylation of cyclin D, cyclin A, CDK4, c-myc and PCNA, LNCaP",LNCaP cells,inhibited the expression and RB phosphorylation
same,"expression of p53 and p27, LNCaP",LNCaP cells,increased the expression
same,"G1 phase of cell cycle, HCT 116",[1],an increase in the G1 phase
same,Wnt signaling pathway,HCT 116 cells,inhibited the Wnt signaling pathway
same,expression of Rb and p-Rb,HCT 116 cells,also inhibited the expression
same,"expression of cyclin D1, cyclin A and cyclin E",HCT 116 cells,inhibited the expression
same,expression of p53,HCT 116 cells,increased the expression
same,amount of TNF-α secreted,"TNF-α; ELISA, 5, 10, 20 μM, LPS 1 μg/ml, 6 hours",concentration-dependently inhibited
same,expression of TNF-α mRNA,TNF-α; RT-PCR,also inhibited
same,viability of RAW 264.7 cells (MTT),RAW 264.7 cells,80%
same,"Wnt signaling pathway, PC-3",PC-3 cells,inhibited the Wnt signaling pathway
same,"expression and RB phosphorylation of cyclin D, cyclin A, CDK4, c-myc and PCNA, PC-3",PC-3 cells,inhibited the expression and RB phosphorylation
same,"expression of p53 and p27, PC-3",PC-3 cells,increased the expression
